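Growth conditions: 96-well plates. Treatment: test compound, 48 hours, 5 concentrations. Analysis: linear interpolation between bracketing concentrations; unreached endpoints set to highest concentration. Here, GI50 denotes the concentration required for 50% inhibition of growth.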 Calls of active or inactive are those of the source. Cut-off read from the data, not from the text of the source: active = GI50 up to about 1.1 µM and inactive = higher. Residues, ends and D or L forms follow the SMILES beside them. *: point of attachment. Boc = CC(C)(C)OC(=O)*; Bz = O=C(c1ccccc1)*
Experiments:
Assay in all cases: growth of human tumour cells (NCI), 48 h
UO-31 = tested on: UO-31
NCI/ADR-RES = tested on: NCI/ADR-RES
SK-MEL-28 = tested on: SK-MEL-28
CAKI-1 = tested on: CAKI-1
ACHN = tested on: ACHN
MCF7 = tested on: MCF7
MDA-MB-231 = tested on: MDA-MB-231
OVCAR-8 = tested on: OVCAR-8
HCC 2998 = tested on: HCC 2998
A549 = tested on: A549
SN12C = tested on: SN12C
OVCAR-4 = tested on: OVCAR-4
SF-295 = tested on: SF-295
COLO 205 = tested on: COLO 205
UACC-62 = tested on: UACC-62
EKVX = tested on: EKVX
786-0 = tested on: 786-0
RPMI-8226 = tested on: RPMI-8226
SR = tested on: SR

SMILES | GI50 (UO-31) | GI50 (NCI/ADR-RES) | GI50 (SK-MEL-28) | GI50 (CAKI-1) | GI50 (ACHN) | GI50 (MCF7) | GI50 (MDA-MB-231) | GI50 (OVCAR-8) | GI50 (HCC 2998) | GI50 (A549) | GI50 (SN12C) | GI50 (OVCAR-4) | GI50 (SF-295) | GI50 (COLO 205) | GI50 (UACC-62) | GI50 (EKVX) | GI50 (786-0) | GI50 (RPMI-8226) | GI50 (SR)
COc1cccc(/C=C2/Sc3scc(-c4ccccc4)[n+]3C2=O)c1O | 13.3 µM (inactive) | 17.7 µM (inactive) | 17.3 µM (inactive) | 21.3 µM (inactive) | 18.4 µM (inactive) | 15.5 µM (inactive) | 23.5 µM (inactive) | 17.5 µM (inactive) | 16.6 µM (inactive) | 38.8 µM (inactive) | 17.9 µM (inactive) | 29.6 µM (inactive) | 37.3 µM (inactive) | 31.8 µM (inactive) | 15.5 µM (inactive) | 19.2 µM (inactive) | 15.2 µM (inactive) | – | –
O=C1c2ccccc2-c2nc3ccc(O)cc3n21 | > 100 µM (inactive) | > 100 µM (inactive) | > 100 µM (inactive) | > 100 µM (inactive) | > 100 µM (inactive) | > 100 µM (inactive) | – | > 100 µM (inactive) | > 100 µM (inactive) | > 100 µM (inactive) | > 100 µM (inactive) | > 100 µM (inactive) | > 100 µM (inactive) | > 100 µM (inactive) | > 100 µM (inactive) | > 100 µM (inactive) | > 100 µM (inactive) | > 100 µM (inactive) | > 100 µM (inactive)
Cc1c2c(OCC(O)CN3CCN(c4ccccc4)CC3)nn(C)c(=O)c2c(C)n1-c1ccccc1 (stereo not given) | 18.9 µM (inactive) | 24.6 µM (inactive) | 18.4 µM (inactive) | 31.6 µM (inactive) | 20.6 µM (inactive) | 18.4 µM (inactive) | 25.6 µM (inactive) | 33 µM (inactive) | 29.7 µM (inactive) | 24.7 µM (inactive) | 18.5 µM (inactive) | 30.3 µM (inactive) | 21.5 µM (inactive) | 20.3 µM (inactive) | 17.1 µM (inactive) | 34.8 µM (inactive) | 18.8 µM (inactive) | 21.6 µM (inactive) | –
COC1(C)CC2N(C(=O)c3ccccc3)N=C(c3ccccc3)CC2(C)O1 (stereo not given) | > 100 µM (inactive) | – | – | > 100 µM (inactive) | > 100 µM (inactive) | – | – | > 100 µM (inactive) | 96.4 µM (inactive) | > 100 µM (inactive) | > 100 µM (inactive) | > 100 µM (inactive) | > 100 µM (inactive) | – | 43.3 µM (inactive) | – | > 100 µM (inactive) | 89.5 µM (inactive) | –
O=S(=O)(c1ccccc1)C1CN2OC1(S(=O)(=O)c1ccccc1)CC2c1ccc(Br)cc1 (stereo not given) | 37.9 µM (inactive) | – | > 100 µM (inactive) | 60 µM (inactive) | 45.4 µM (inactive) | – | – | > 100 µM (inactive) | > 100 µM (inactive) | > 100 µM (inactive) | > 100 µM (inactive) | 15.4 µM (inactive) | 31.8 µM (inactive) | – | > 100 µM (inactive) | > 100 µM (inactive) | 38.1 µM (inactive) | > 100 µM (inactive) | –
N#Cc1cnc(-n2[nH]c3c(c2=O)CCCC3)[nH]c1=O | 38.5 µM (inactive) | – | 55.2 µM (inactive) | 39.2 µM (inactive) | 47.2 µM (inactive) | 39.8 µM (inactive) | 39.9 µM (inactive) | – | – | 38.5 µM (inactive) | 44.2 µM (inactive) | 83.9 µM (inactive) | 40.3 µM (inactive) | 38.5 µM (inactive) | 38.6 µM (inactive) | 37.6 µM (inactive) | 49.2 µM (inactive) | 88.3 µM (inactive) | 23.8 µM (inactive)
CC(NC(=O)C(Cc1ccc(OC(=O)c2ccccc2)cc1)NC(=O)OC(C)(C)C)C(=O)NC(Cc1ccccc1)C(=O)NCC(N)=O (stereo not given) (Boc-Y(Bz)AFG-NH2; configuration not given here) | 18.8 µM (inactive) | > 100 µM (inactive) | 28.7 µM (inactive) | > 100 µM (inactive) | 23 µM (inactive) | 19.5 µM (inactive) | 19.4 µM (inactive) | 24.7 µM (inactive) | 20.2 µM (inactive) | 23.4 µM (inactive) | 21.1 µM (inactive) | 20.9 µM (inactive) | 18.7 µM (inactive) | 29.1 µM (inactive) | 18.8 µM (inactive) | – | 20.3 µM (inactive) | 24 µM (inactive) | –
CC(=O)OCc1nc(C#N)c(N)o1 | > 100 µM (inactive) | – | > 100 µM (inactive) | > 100 µM (inactive) | > 100 µM (inactive) | > 100 µM (inactive) | > 100 µM (inactive) | – | > 100 µM (inactive) | – | > 100 µM (inactive) | > 100 µM (inactive) | > 100 µM (inactive) | > 100 µM (inactive) | > 100 µM (inactive) | > 100 µM (inactive) | > 100 µM (inactive) | > 100 µM (inactive) | > 100 µM (inactive)
OCC(O)C(O)C(C=NNc1ncnc2ccc(Br)cc12)=NNc1ncnc2ccc(Br)cc12 (stereo not given) | 2.78 µM (inactive) | – | 1.45 µM (inactive) | 0.83 µM (active) | 0.729 µM (active) | 0.378 µM (active) | 1.88 µM (inactive) | 0.533 µM (active) | – | 2.88 µM (inactive) | 2.39 µM (inactive) | 0.383 µM (active) | 3.25 µM (inactive) | 0.255 µM (active) | – | 0.406 µM (active) | 0.834 µM (active) | 1.19 µM (inactive) | 0.492 µM (active)
CC(C)C1OC(=O)C=C1Sc1ccccc1 (stereo not given) | – | – | > 100 µM (inactive) | > 100 µM (inactive) | > 100 µM (inactive) | > 100 µM (inactive) | > 100 µM (inactive) | > 100 µM (inactive) | > 100 µM (inactive) | > 100 µM (inactive) | > 100 µM (inactive) | > 100 µM (inactive) | > 100 µM (inactive) | > 100 µM (inactive) | > 100 µM (inactive) | > 100 µM (inactive) | > 100 µM (inactive) | > 100 µM (inactive) | > 100 µM (inactive)
CC1(C)CC(=O)C(=CNC(=O)c2ccncc2)C(=O)C1 | > 100 µM (inactive) | > 100 µM (inactive) | > 100 µM (inactive) | > 100 µM (inactive) | > 100 µM (inactive) | > 100 µM (inactive) | > 100 µM (inactive) | > 100 µM (inactive) | > 100 µM (inactive) | > 100 µM (inactive) | > 100 µM (inactive) | > 100 µM (inactive) | > 100 µM (inactive) | > 100 µM (inactive) | > 100 µM (inactive) | > 100 µM (inactive) | > 100 µM (inactive) | – | –
S=C(N1CCN(c2ccccc2)CC1)N1CCN(c2ccccc2)CC1 | > 100 µM (inactive) | > 100 µM (inactive) | 86.9 µM (inactive) | > 100 µM (inactive) | > 100 µM (inactive) | > 100 µM (inactive) | > 100 µM (inactive) | > 100 µM (inactive) | > 100 µM (inactive) | > 100 µM (inactive) | > 100 µM (inactive) | > 100 µM (inactive) | 52.1 µM (inactive) | > 100 µM (inactive) | > 100 µM (inactive) | > 100 µM (inactive) | > 100 µM (inactive) | > 100 µM (inactive) | –
CCOC(=O)c1c(SC(=O)c2cc(OC)c(OC)c(OC)c2)n(-c2ccccc2)c(=S)n(-c2ccccc2)c1=O | – | > 100 µM (inactive) | > 100 µM (inactive) | > 100 µM (inactive) | > 100 µM (inactive) | > 100 µM (inactive) | > 100 µM (inactive) | > 100 µM (inactive) | > 100 µM (inactive) | > 100 µM (inactive) | > 100 µM (inactive) | > 100 µM (inactive) | > 100 µM (inactive) | > 100 µM (inactive) | > 100 µM (inactive) | > 100 µM (inactive) | > 100 µM (inactive) | – | > 100 µM (inactive)
COC(=O)C1=C(CCC[C@H](C)O[Si](C)(C)C(C)(C)C)NC(=O)N2[C@@H](CCO)CC[C@H]12 | 15.6 µM (inactive) | 13.9 µM (inactive) | 18.5 µM (inactive) | 17.2 µM (inactive) | 16.2 µM (inactive) | – | 16.2 µM (inactive) | 15.5 µM (inactive) | – | 12.3 µM (inactive) | 15 µM (inactive) | 16.5 µM (inactive) | 11.7 µM (inactive) | 17.6 µM (inactive) | – | 12.4 µM (inactive) | 14.5 µM (inactive) | 14.9 µM (inactive) | –
CC1=CC(=O)C(=C(C)C)CC1 | > 100 µM (inactive) | > 100 µM (inactive) | > 100 µM (inactive) | > 100 µM (inactive) | > 100 µM (inactive) | > 100 µM (inactive) | > 100 µM (inactive) | > 100 µM (inactive) | – | > 100 µM (inactive) | > 100 µM (inactive) | > 100 µM (inactive) | > 100 µM (inactive) | > 10 µM (inactive) | > 100 µM (inactive) | > 100 µM (inactive) | > 100 µM (inactive) | – | 48 µM (inactive)
O=[N+]([O-])c1ccc(C2CC(c3ccc(NCc4nc5ccccc5[nH]4)cc3)=NO2)cc1 (stereo not given) | > 100 µM (inactive) | – | > 100 µM (inactive) | > 100 µM (inactive) | 33.3 µM (inactive) | – | – | 37.7 µM (inactive) | 85.5 µM (inactive) | 98.2 µM (inactive) | 30.7 µM (inactive) | 14.3 µM (inactive) | 21.8 µM (inactive) | > 100 µM (inactive) | 70.3 µM (inactive) | – | 39.6 µM (inactive) | 18.5 µM (inactive) | 4.93 µM (inactive)
